# According to patent US20190315711A1 (eXIthera Pharmaceuticals, Inc., priority 2016, published 2019):
# Key:
# Thrombin = biological target: T1, Thrombin (Homo sapiens, UniProt P00734); experiment: Dose response assay for protease inhibitors: thrombin; type: biochemical; details: ratio versus Factor XIa
# T1 construct: Thrombin; 0.2 μM in 50% glycerol (7.34 μg/mL)
# Method: (§1) • Assay buffer: 20 mM Hepes, pH 7.4; 150 mM NaCl; 0.02% Tween 20 • Compounds: 10 mM stocks in DMSO • Substrate: 20 mM Glp-Pro-Arg-AMC, 25 mg/2.3 mL H2O (store at +4° C.) [Factor XIa, thrombin, and trypsin] • 20 mM Pro-Phe-Arg-AMC (Bachem I-1295), 25 mg/2.2 mL H2O or Boc-Leu-Gly-Arg-AMC (Bachem I-1105), 25 mg/2.07 mL H2O (store at +4° C.) [Factor Xa] • Enzyme: Factor XIa; 0.25 M in 50% glycerol (20 μg/mL) • Trypsin; 0.2 μM in 50% glycerol (4.8 μg/mL) • Thrombin; 0.2 μM in 50% glycerol (7.34 μg/mL) • Factor Xa; 0.2 μM in 50% glycerol (9.2 μg/mL)
# (§2) • 1. Dilute the substrate to 100 μM in assay buffer (30 μL/6 mL). The enzyme is diluted to 0.5 nM just prior to use (12 L/6 mL for Factor XIa; 15 μL/6 mL for all of the rest.) • 2. Pipette 50 μL of substrate into each well of the 96 well (12×8) microtiter plate. (Column 1 is used as the 100% activity control and receives no compound, and Column 12 is the blank and receives no enzyme.) Add an additional 46 μL to column 2. • 3. Pipette 4 μL of each compound into the appropriate well in column 2 of the plate (unknowns assayed in triplicate, standard assayed in duplicate). The final compound concentration will be 1/50th of the stock. • 4. Serially two-fold dilute the compound by mixing the sample in column 2, removing 50 μL to the next well (column 3), mix and remove to column 4, etc. until column 11. After mixing column 11, remove 50 μL and discard. • 5. Pipette 50 μL of buffer into column 12. Initiate the reaction by adding 50 μL of enzyme solution to each well of columns 1-11 as rapidly as possible. • 6. Read the plate in a spectrophotometer (SpectraMax) at 30° C., wherein each well is measured every 60 s for 30 min. For Factor Xa assays, each well is measured every 1 min for a total of 60 min. • 7. For Factor XIa assays, the compounds are assayed, in duplicate, at 3 different starting concentrations, 20, 2, and 0.2 μM; 1:10, 1:100, and 1:1000 dilution of 10 mM stock or at 2, 0.2, and 0.02 μM; 1:100, 1:1000, and 1:10,000 dilution of 10 mM stock. Data for each concentration are combined for graphing and data fitting. • 8. Data can be used both for estimation of IC50 and for estimation of Kon.
# Trypsin = biological target: T2, Trypsin (Bos taurus, UniProt P00760); experiment: Dose response assay for protease inhibitors: trypsin; type: biochemical; details: ratio versus Factor XIa
# T2 construct: gene PRSS1
# T2 sequence (P00760 24-246): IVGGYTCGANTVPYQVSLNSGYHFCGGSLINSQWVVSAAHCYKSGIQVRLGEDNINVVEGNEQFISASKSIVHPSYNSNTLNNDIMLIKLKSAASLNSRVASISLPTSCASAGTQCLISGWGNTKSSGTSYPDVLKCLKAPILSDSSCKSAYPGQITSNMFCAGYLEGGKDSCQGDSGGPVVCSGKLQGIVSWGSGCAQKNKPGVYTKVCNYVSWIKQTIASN
# Method: as §1, §2
# Factor Xa = biological target: T3, Factor Xa (Homo sapiens, UniProt P00742); experiment: Dose response assay for protease inhibitors: Factor Xa; type: biochemical; details: ratio versus Factor XIa
# T3 construct: Factor Xa; 0.2 μM in 50% glycerol (9.2 μg/mL)
# T3 sequence (P00742 235-488 limits assumed): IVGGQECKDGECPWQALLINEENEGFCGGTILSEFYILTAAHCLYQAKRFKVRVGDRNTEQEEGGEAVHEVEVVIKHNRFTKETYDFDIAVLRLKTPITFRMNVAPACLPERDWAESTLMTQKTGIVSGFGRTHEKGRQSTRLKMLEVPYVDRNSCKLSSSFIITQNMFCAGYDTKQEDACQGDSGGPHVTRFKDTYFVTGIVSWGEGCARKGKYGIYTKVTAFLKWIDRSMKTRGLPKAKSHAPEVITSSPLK
# T3 sequence (P00742 41-179 partner limits assumed): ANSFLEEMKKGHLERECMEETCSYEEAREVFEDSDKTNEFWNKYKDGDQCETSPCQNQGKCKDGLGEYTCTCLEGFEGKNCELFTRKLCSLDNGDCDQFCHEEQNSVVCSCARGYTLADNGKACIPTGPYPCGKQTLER
# Method: as §1, §2
# human Factor XIa = human Factor XIa (Homo sapiens, UniProt P03951); experiment: Factor XIa enzyme inhibition assay (dose response, fluorogenic AMC substrate); type: biochemical; parameters: Enzyme: Factor XIa; details: purified enzyme; substrate 50 μM, enzyme 0.25 nM; read-out: hFXIa IC50
# Chain of human Factor XIa (P03951 388-625 limits assumed): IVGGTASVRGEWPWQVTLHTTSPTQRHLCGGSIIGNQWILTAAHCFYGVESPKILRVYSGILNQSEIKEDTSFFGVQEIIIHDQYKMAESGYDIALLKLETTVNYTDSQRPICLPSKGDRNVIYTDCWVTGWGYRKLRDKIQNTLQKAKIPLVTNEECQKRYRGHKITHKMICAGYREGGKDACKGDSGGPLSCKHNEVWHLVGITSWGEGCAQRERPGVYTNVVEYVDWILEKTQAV
# Chain of human Factor XIa (P03951 19-387 partner limits assumed): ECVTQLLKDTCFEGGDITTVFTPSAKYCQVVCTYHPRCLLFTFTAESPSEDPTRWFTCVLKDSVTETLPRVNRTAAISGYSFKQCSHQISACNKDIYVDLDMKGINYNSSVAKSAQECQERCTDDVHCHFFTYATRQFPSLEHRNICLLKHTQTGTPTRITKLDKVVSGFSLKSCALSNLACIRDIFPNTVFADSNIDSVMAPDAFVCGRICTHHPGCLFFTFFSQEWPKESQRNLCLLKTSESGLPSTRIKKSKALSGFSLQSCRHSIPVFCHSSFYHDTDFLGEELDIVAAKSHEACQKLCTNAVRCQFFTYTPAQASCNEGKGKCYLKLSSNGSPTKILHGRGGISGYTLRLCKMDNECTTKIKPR
# Method: as §1, §2
# Potential inhibitors of Factor XIa were evaluated using the following assay.
# PyroGlu-Pro-Arg-7-methylaminocourin (AMC), available from CPC Scientific, Inc., is based on the substrate pyro-Glu-Pro-Arg-pNA (S-2366), available from Diapharma Group, Inc. (Columbus, Ohio), wherein the p-nitroanaline group is replaced with 7-methylaminocoumarin (AMC).
# The final concentration of the substrate in the assay was 50 μM, and the final concentration of the enzyme was 0.25 nM. Inhibitors were tested by serial dilution over an appropriate range to yield a dose response curve for determination of the inhibitors' IC50 value. The assay mixture was read every minute for 30 minutes in order to generate progress curves. The plates were read in a Spectramax m5 Multimode Plate Reader (Molecular Devices LLC, Sunnyvale, Calif.). Dose response curves were fit to Equation 1 below in which A is the maximum inhibition, B is the minimum inhibition, C is the IC50, and D is the Hill coefficient.
# Y=[(A−B)/(1+(X/C)^D)]+B (Equation 1)
# [1] = Caco-2 cell permeability assay (A-B and B-A); type: in vitro ADME; details: human; for Papp A→B at 60 min, 10 μM: A-B direction; for Papp B→A at 40 min, 10 μM: B-A direction
# Method: The following procedure was used to determine the ability of a test compound to cross Caco-2 cells (human intestinal epithelial cells derived from a colorectal adenocarcinoma). The cells were seeded at 1×10^5 cells/cm^2 in 96-well Multiscreen™ plates (Millipore). Permeability assays were performed with the cells at days 21-25 post-seeding. Cells are typically used for 15 consecutive passages in culture.
# This assay can be performed in either the apical to basolateral (A−B) or basolateral to apical (B−A) direction. The test compound was prepared at 10 μM in HBSS-MES (pH 6.5) or HBSS-HEPES (pH 7.4) with a final DMSO concentration of 1%. The working solution was then centrifuged and the supernatant added to the donor side. The assay plate was incubated at 37° C. with gentle shaking for 60 min or 40 min for the A−B or B−A assay, respectively. Samples were aliquoted from the donor side at time zero and the end point, and from the receiver side at the end point.
# Reference compounds, propranolol (highly permeable), labetalol (moderately permeable), ranitidine (poorly permeable), and colchicine (P-glycoprotein substrate) were included in each assay.
# Samples are analyzed by HPLC-MS/MS using selected reaction monitoring. The HPLC system consists of a binary LC pump with autosampler, a C-18 column, and a gradient.
# The apparent permeability coefficient (Papp) of the test compound (Equation 2) and its recovery (Equation 3) are calculated as follows: […]
# wherein A is the surface area of the cell monolayer (0.11 cm^2), C is concentration of the test compound expressed as peak area, D denotes donor, and R is receiver. “0”, “mid,” and “end” denote time at zero, mid-point, and end of the incubation, respectively. At is the incubation time. V is the volume of the donor or receiver.
# This is most likely due to non-specific binding or degradation.
Ratio: Thrombin/FXIa (Thrombin),Ratio: Trypsin/FXIa (Trypsin),FXa/FXIa (selectivity ratio) (Factor Xa),IC50 (human Factor XIa),"Papp A→B at 60 min, 10 μM [1]","Papp B→A at 40 min, 10 μM [1]",SMILES
H (“H” indicates 101-1000),G (“G” indicates 1-100),I (“I” indicates >500),< 0.01 µM,–,–,CC[C@@H](NC(=O)N1C(=O)[C@H](Cc2ccnc(N)c2)[C@H]1C(=O)N(C)c1cccc(F)c1)C1CCCCC1 [Compound 29]
H (“H” indicates 101-1000),G (“G” indicates 1-100),I (“I” indicates >500),< 0.01 µM,–,–,CC[C@@H](NC(=O)N1C(=O)[C@H](Cc2ccnc(N)c2)[C@H]1C(=O)N(CC)c1ccccc1)C1CCCCC1 [Compound 31]
H (“H” indicates 101-1000),G (“G” indicates 1-100),I (“I” indicates >500),< 0.01 µM,–,–,CC(C)[C@@H](NC(=O)N1C(=O)[C@H](Cc2ccnc(N)c2)[C@H]1C(=O)N(C)c1ccccc1)C1CCCCC1 [Compound 35]
–,–,–,< 0.01 µM,≤ 10 ×10⁻⁶ cm/s,≤ 10 ×10⁻⁶ cm/s,CCN(C(=O)[C@@H]1[C@@H](Cc2ccnc(N)c2)C(=O)N1C(=O)N[C@@H](C1CCCCC1)C(F)(F)F)c1ncccn1 [Compound 38]
H (“H” indicates 101-1000),G (“G” indicates 1-100),H (“H” indicates 101-1000),< 0.01 µM,–,–,CC[C@@H](NC(=O)N1C(=O)[C@H](Cc2ccnc(N)c2)[C@H]1C(=O)N(C)c1ccccc1)c1ccccc1 [Compound 40]
–,–,–,< 0.01 µM,≤ 10 ×10⁻⁶ cm/s,≤ 10 ×10⁻⁶ cm/s,CC[C@@H](NC(=O)N1C(=O)[C@H](Cc2ccnc(N)c2)[C@H]1C(=O)N(C)c1cc(Cl)cc(Cl)c1)C1CCCCC1 [Compound 51]
–,–,–,< 0.01 µM,11 to 30 ×10⁻⁶ cm/s,≤ 10 ×10⁻⁶ cm/s,CCN(C(=O)[C@@H]1[C@@H](Cc2ccnc(N)c2)C(=O)N1C(=O)N[C@@H](C1CCCCC1)C1CC1)c1ncccn1 [Compound 54]
H (“H” indicates 101-1000),G (“G” indicates 1-100),I (“I” indicates >500),< 0.01 µM,–,–,CCN(C(=O)[C@@H]1[C@@H](Cc2ccnc(N)c2)C(=O)N1C(=O)N[C@@H](C1CCCCC1)C1CC1)c1ccccc1 [Compound 55]
H (“H” indicates 101-1000),H (“H” indicates 101-1000),H (“H” indicates 101-1000),0.01 to 0.1 µM,–,–,CN(C(=O)[C@@H]1[C@@H](Cc2ccncc2)C(=O)N1C(=O)N[C@@H](C1CCCCC1)C1CC1)c1ccncc1 [Compound 64]
G (“G” indicates 1-100),–,I (“I” indicates >500),0.01 to 0.1 µM,11 to 30 ×10⁻⁶ cm/s,31 to 50 ×10⁻⁶ cm/s,CN(C(=O)[C@@H]1[C@@H](Cc2ccnc(N)c2)C(=O)N1C(=O)N[C@@H](C1CC1)C(F)(F)F)c1ccccc1 [Compound 70]
H (“H” indicates 101-1000),–,H (“H” indicates 101-1000),0.01 to 0.1 µM,–,–,CCN(C(=O)[C@@H]1[C@@H](Cc2ccnc(N)c2)C(=O)N1C(=O)N[C@@H](C1CC1)C(F)(F)F)c1ncccn1 [Compound 79]
–,–,I (“I” indicates >500),0.01 to 0.1 µM,–,–,CC[C@@H](NC(=O)N1C(=O)[C@H](Cc2ccnc(N)c2)[C@H]1C(=O)N(C)c1ccncc1)c1ccccc1C [Compound 96]
H (“H” indicates 101-1000),G (“G” indicates 1-100),H (“H” indicates 101-1000),< 0.01 µM,–,–,CC[C@@H](NC(=O)N1C(=O)[C@H](Cc2ccnc(N)c2)[C@H]1C(=O)N(C)c1ccncc1)c1cccc(Br)c1 [Compound 98]
H (“H” indicates 101-1000),H (“H” indicates 101-1000),I (“I” indicates >500),< 0.01 µM,–,–,CC[C@@H](NC(=O)N1C(=O)[C@H](Cc2ccnc(N)c2)[C@H]1C(=O)N(C)c1ccncc1)c1ccc(C)nc1 [Compound 104]
H (“H” indicates 101-1000),G (“G” indicates 1-100),H (“H” indicates 101-1000),< 0.01 µM,–,–,CC[C@@H](NC(=O)N1C(=O)[C@H](Cc2ccnc(N)c2)[C@H]1C(=O)N(C)c1ccncc1)c1cc(Cl)ccc1Cl [Compound 112]
H (“H” indicates 101-1000),G (“G” indicates 1-100),H (“H” indicates 101-1000),< 0.01 µM,–,–,CC[C@@H](NC(=O)N1C(=O)[C@H](Cc2ccnc(N)c2)[C@H]1C(=O)N(C)c1cccc(F)c1)c1cccc(Cl)c1 [Compound 116]
G (“G” indicates 1-100),G (“G” indicates 1-100),H (“H” indicates 101-1000),< 0.01 µM,–,–,CC[C@@H](NC(=O)N1C(=O)[C@H](Cc2ccnc(N)c2)[C@H]1C(=O)N(C)c1cccc(C)c1)c1cccc(Cl)c1 [Compound 117]
G (“G” indicates 1-100),G (“G” indicates 1-100),H (“H” indicates 101-1000),< 0.01 µM,–,–,CC[C@@H](NC(=O)N1C(=O)[C@H](Cc2ccnc(N)c2)[C@H]1C(=O)N(C)c1cccc(Cl)c1)c1cccc(Cl)c1 [Compound 118]
H (“H” indicates 101-1000),G (“G” indicates 1-100),I (“I” indicates >500),< 0.01 µM,–,–,CC[C@@H](NC(=O)N1C(=O)[C@H](Cc2cc(C)nc(N)c2)[C@H]1C(=O)N(C)c1ccccc1)c1ccccc1 [Compound 119]
